According to the supplement of paper PMC10307832:

Tests used:
Assay in all cases: relative viability (nuclei count vs DMSO), 5 days (fraction); higher = more cells survive
NCI-H1793 = test system: NCI-H1793
Method in brief: (§1)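 For relative viability, nuclei counts in treated wells were divided by those in vehicle wells. Lung cancer cell lines had been pin-tool dosed in 1536-well plates the day after seeding and cultured for 5 days, then fixed and stained in one step (final 0.05% Triton X-100, 1% formaldehyde, 1 ug/ml Hoechst) and imaged at 4×. Doses were one drug alone or a fixed anchor-drug dose plus five library-drug doses (not always all listed) in √10 steps, and values are duplicate-plate medians.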

EPLC-272H = test system: EPLC-272H
Method in brief: as §1

ABC-1 = test system: ABC-1
Method in brief: as §1

LCLC-103H = test system: LCLC-103H
Method in brief: as §1

NCI-H3122 = test system: NCI-H3122
Method in brief: as §1

ChaGo-K-1 = test system: ChaGo-K-1
Method in brief: as §1

NCI-H2085 = test system: NCI-H2085
Method in brief: as §1

HCC-15 = test system: HCC-15
Method in brief: as §1

COR-L23 = test system: COR-L23
Method in brief: as §1

NCI-H2228 = test system: NCI-H2228
Method in brief: as §1

HCC-827 = test system: HCC-827
Method in brief: as §1

NCI-H2347 = test system: NCI-H2347
Method in brief: as §1

HCC-366 = test system: HCC-366
Method in brief: as §1

NCI-H2023 = test system: NCI-H2023
Method in brief: as §1

NCI-H1944 = test system: NCI-H1944
Method in brief: as §1

NCI-H1355 = test system: NCI-H1355
Method in brief: as §1

PC-14 = test system: PC-14
Method in brief: as §1

SW 1573 = test system: SW 1573
Method in brief: as §1

NCI-H2009 = test system: NCI-H2009
Method in brief: as §1

NCI-H2405 = test system: NCI-H2405
Method in brief: as §1

NCI-H1734 = test system: NCI-H1734
Method in brief: as §1

HCC-44 = test system: HCC-44
Method in brief: as §1

CCNC(=O)c1noc(-c2cc(C(C)C)c(O)cc2O)c1-c1ccc(CN2CCOCC2)cc1 [Luminespib] + O=C(CCCCCCC(=O)Nc1ccccc1)NO [Vorinostat] (partner 1 µM)
relative viability (NCI-H1793; first compound 0.002 µM): 0.631 | relative viability (NCI-H1793; first compound 0.006325 µM): 0.556 | relative viability (NCI-H1793; first compound 0.02 µM): 0.271 | relative viability (NCI-H1793; first compound 0.06325 µM): 0.107 | relative viability (NCI-H1793; first compound 0.2 µM): 0.122 | relative viability (EPLC-272H; first compound 0.002 µM): 0.402 | relative viability (EPLC-272H; first compound 0.006325 µM): 0.381 | relative viability (EPLC-272H; first compound 0.02 µM): 0.505 | relative viability (EPLC-272H; first compound 0.06325 µM): 0.0961 | relative viability (EPLC-272H; first compound 0.2 µM): 0.171 | relative viability (ABC-1; first compound 0.002 µM): 1.34 | relative viability (ABC-1; first compound 0.006325 µM): 0.291 | relative viability (ABC-1; first compound 0.02 µM): 1.06 | relative viability (ABC-1; first compound 0.06325 µM): 0.269 | relative viability (ABC-1; first compound 0.2 µM): 0.325 | relative viability (LCLC-103H; first compound 0.002 µM): 0.616 | relative viability (LCLC-103H; first compound 0.006325 µM): 0.718 | relative viability (LCLC-103H; first compound 0.02 µM): 0.661 | relative viability (LCLC-103H; first compound 0.06325 µM): 0.75 | relative viability (LCLC-103H; first compound 0.2 µM): 0.25 | relative viability (NCI-H3122; first compound 0.002 µM): 0.991 | relative viability (NCI-H3122; first compound 0.006325 µM): 0.973 | relative viability (NCI-H3122; first compound 0.02 µM): 0.456 | relative viability (NCI-H3122; first compound 0.06325 µM): 0.787 | relative viability (NCI-H3122; first compound 0.2 µM): 0.067 | relative viability (ChaGo-K-1; first compound 0.002 µM): 0.678 | relative viability (ChaGo-K-1; first compound 0.006325 µM): 0.728 | relative viability (ChaGo-K-1; first compound 0.02 µM): 0.529 | relative viability (ChaGo-K-1; first compound 0.06325 µM): 0.523 | relative viability (ChaGo-K-1; first compound 0.2 µM): 0.23 | relative viability (NCI-H2085; first compound 0.002 µM): 0.797 | relative viability (NCI-H2085; first compound 0.006325 µM): 0.717 | relative viability (NCI-H2085; first compound 0.02 µM): 0.553 | relative viability (NCI-H2085; first compound 0.06325 µM): 0.367 | relative viability (NCI-H2085; first compound 0.2 µM): 0.31 | relative viability (HCC-15; first compound 0.002 µM): 0.792 | relative viability (HCC-15; first compound 0.006325 µM): 0.805 | relative viability (HCC-15; first compound 0.02 µM): 0.942 | relative viability (HCC-15; first compound 0.06325 µM): 0.583 | relative viability (HCC-15; first compound 0.2 µM): 0.173 | relative viability (COR-L23; first compound 0.002 µM): 0.469 | relative viability (COR-L23; first compound 0.006325 µM): 0.364 | relative viability (COR-L23; first compound 0.02 µM): 0.396 | relative viability (COR-L23; first compound 0.06325 µM): 0.0788 | relative viability (COR-L23; first compound 0.2 µM): 0.0814 | relative viability (NCI-H2228; first compound 0.002 µM): 0.873 | relative viability (NCI-H2228; first compound 0.006325 µM): 0.503 | relative viability (NCI-H2228; first compound 0.02 µM): 0.54 | relative viability (NCI-H2228; first compound 0.06325 µM): 0.143 | relative viability (NCI-H2228; first compound 0.2 µM): 0.15 | relative viability (HCC-827; first compound 0.002 µM): 0.817 | relative viability (HCC-827; first compound 0.006325 µM): 0.884 | relative viability (HCC-827; first compound 0.02 µM): 0.45 | relative viability (HCC-827; first compound 0.06325 µM): 0.797 | relative viability (HCC-827; first compound 0.2 µM): 0.144 | relative viability (NCI-H2347; first compound 0.002 µM): 0.54 | relative viability (NCI-H2347; first compound 0.006325 µM): 0.413 | relative viability (NCI-H2347; first compound 0.02 µM): 0.589 | relative viability (NCI-H2347; first compound 0.06325 µM): 0.38 | relative viability (NCI-H2347; first compound 0.2 µM): 0.263 | relative viability (HCC-366; first compound 0.002 µM): 0.38 | relative viability (HCC-366; first compound 0.006325 µM): 0.35 | relative viability (HCC-366; first compound 0.02 µM): 0.18 | relative viability (HCC-366; first compound 0.06325 µM): 0.0252 | relative viability (HCC-366; first compound 0.2 µM): 0.0243 | relative viability (NCI-H2023; first compound 0.002 µM): 0.7 | relative viability (NCI-H2023; first compound 0.006325 µM): 0.527 | relative viability (NCI-H2023; first compound 0.02 µM): 0.236 | relative viability (NCI-H2023; first compound 0.06325 µM): 0.0453 | relative viability (NCI-H2023; first compound 0.2 µM): 0.0503 | relative viability (NCI-H1944; first compound 0.002 µM): 0.549 | relative viability (NCI-H1944; first compound 0.006325 µM): 0.571 | relative viability (NCI-H1944; first compound 0.02 µM): 0.354 | relative viability (NCI-H1944; first compound 0.06325 µM): 0.404 | relative viability (NCI-H1944; first compound 0.2 µM): 0.153 | relative viability (NCI-H1355; first compound 0.002 µM): 0.581 | relative viability (NCI-H1355; first compound 0.006325 µM): 0.641 | relative viability (NCI-H1355; first compound 0.02 µM): 0.38 | relative viability (NCI-H1355; first compound 0.06325 µM): 0.398 | relative viability (NCI-H1355; first compound 0.2 µM): 0.12 | relative viability (PC-14; first compound 0.002 µM): 0.787 | relative viability (PC-14; first compound 0.006325 µM): 0.639 | relative viability (PC-14; first compound 0.02 µM): 0.121 | relative viability (PC-14; first compound 0.06325 µM): 0.0465 | relative viability (PC-14; first compound 0.2 µM): 0.0692 | relative viability (SW 1573; first compound 0.002 µM): 0.742 | relative viability (SW 1573; first compound 0.006325 µM): 0.874 | relative viability (SW 1573; first compound 0.02 µM): 0.212 | relative viability (SW 1573; first compound 0.06325 µM): 0.0903 | relative viability (SW 1573; first compound 0.2 µM): 0.0874 | relative viability (NCI-H2009; first compound 0.002 µM): 0.765 | relative viability (NCI-H2009; first compound 0.006325 µM): 0.594 | relative viability (NCI-H2009; first compound 0.02 µM): 0.705 | relative viability (NCI-H2009; first compound 0.06325 µM): 0.429 | relative viability (NCI-H2009; first compound 0.2 µM): 0.113 | relative viability (NCI-H2405; first compound 0.002 µM): 1.11 | relative viability (NCI-H2405; first compound 0.02 µM): 0.884 | relative viability (NCI-H2405; first compound 0.06325 µM): 0.194 | relative viability (NCI-H2405; first compound 0.2 µM): 0.165 | relative viability (NCI-H1734; first compound 0.002 µM): 0.719 | relative viability (NCI-H1734; first compound 0.006325 µM): 0.719 | relative viability (NCI-H1734; first compound 0.02 µM): 0.436 | relative viability (NCI-H1734; first compound 0.06325 µM): 0.132 | relative viability (NCI-H1734; first compound 0.2 µM): 0.123 | relative viability (HCC-44; first compound 0.002 µM): 1.1 | relative viability (HCC-44; first compound 0.006325 µM): 1.13 | relative viability (HCC-44; first compound 0.02 µM): 1.19 | relative viability (HCC-44; first compound 0.06325 µM): 1.11 | relative viability (HCC-44; first compound 0.2 µM): 0.924
